Read-outs that look alike come from different tables or passages of the source.
Molecular target: T1, GABA A α5 (α5β3γ2) (Homo sapiens, UniProt P18507+P31644)
T1 construct: expressed in transfected cells; host or cells: HEK293, transiently transfected; membrane preparation
Experiment: [3H]flumazenil competition binding, human GABA A α5 receptor
Method: Membrane Preparation and Binding Assay
The affinity of compounds at GABA A receptor subtypes was measured by competition for [3H]flumazenil (85 Ci/mmol; Roche) binding to HEK293 cells expressing rat (stably transfected) or human (transiently transfected) receptors of compositional α1β3γ2, α2β3γ2, α3β3γ2 and α5β3γ2.
Cell pellets were suspended in Krebs-tris buffer (4.8 mM KCl, 1.2 mM CaCl2, 1.2 mM MgCl2, 120 mM NaCl, 15 mM Tris; pH 7.5; binding assay buffer), homogenized by polytron for ca. 20 sec on ice and centrifuged for 60 min at 4° C. (50000 g; Sorvall, rotor: SM24=20000 rpm). The cell pellets were re-suspended in Krebs-tris buffer and homogenized by polytron for ca. 15 sec on ice. Protein was measured (Bradford method, Bio-Rad) and aliquots of 1 mL were prepared and stored at −80° C.
Assays were incubated to equilibrium for 1 hour at 4° C. and harvested onto GF/C uni-filters (Packard) by filtration using a Packard harvester and washing with ice-cold wash buffer (50 mM Tris; pH 7.5). After drying, filter-retained radioactivity was detected by liquid scintillation counting. Ki values were calculated using Excel-Fit (Microsoft) and are the means of two determinations.

[1] = human receptor α5β3γ2 transiently transfected in HEK293 cells, competition for [3H]flumazenil 0.5 nM, 1 hour at 4° C., means of two determinations, read-out: hKi GABA A α5

Row | Ki [1] [nM] | Ki [nM] | SMILES
1 | 35.6 | – | CCCCc1noc(C)c1CCc1nc(C)c(C(=O)N[C@H](C)CO)s1 [Example 55, 2-[2-(3-Butyl-5-methyl-isoxazol-4-yl)-ethyl]-4-methyl-thiazole-5-carboxylic acid ((R)-2-hydroxy-1-methyl-ethyl)-amide]
2 | 16.9 | – | CCCCc1noc(C)c1CCc1nc(C)c(C(=O)NCC(C)O)s1 (centres unmarked) [Example 56, 2-[2-(3-Butyl-5-methyl-isoxazol-4-yl)-ethyl]-4-methyl-thiazole-5-carboxylic acid (2-hydroxy-propyl)-amide]
3 | 39.2 | – | CCCCc1noc(C)c1CCc1ncc(C(=O)NC(C)C)s1 [Example 57, 2-[2-(3-Butyl-5-methyl-isoxazol-4-yl)-ethyl]-thiazole-5-carboxylic acid isopropylamide]
4 | 50.9 | – | CCCCc1noc(C)c1CCc1ncc(C(=O)NC(C)CO)s1 (centres unmarked) [Example 58, 2-[2-(3-Butyl-5-methyl-isoxazol-4-yl)-ethyl]-thiazole-5-carboxylic acid (2-hydroxy-1-methyl-ethyl)-amide]
5 | 32.5 | – | CCCCc1noc(C)c1CCc1ncc(C(=O)NC2CCOCC2)s1 [Example 59, 2-[2-(3-Butyl-5-methyl-isoxazol-4-yl)-ethyl]-thiazole-5-carboxylic acid (tetrahydro-pyran-4-yl)-amide]
6 | 35.5 | – | CCCCc1noc(C)c1CCc1ncc(C(=O)NC2CCOC2)s1 (centres unmarked) [Example 60, 2-[2-(3-Butyl-5-methyl-isoxazol-4-yl)-ethyl]-thiazole-5-carboxylic acid (tetrahydro-furan-3-yl)-amide]
7 | 43.6 | – | CCCCc1noc(C)c1CCc1ncc(C(=O)N[C@@H](C)CO)s1 [Example 61, 2-[2-(3-Butyl-5-methyl-isoxazol-4-yl)-ethyl]-thiazole-5-carboxylic acid ((S)-2-hydroxy-1-methyl-ethyl)-amide]
8 | 45 | – | CCCCc1noc(C)c1CCc1ncc(C(=O)NCC(C)O)s1 (centres unmarked) [Example 62, 2-[2-(3-Butyl-5-methyl-isoxazol-4-yl)-ethyl]-thiazole-5-carboxylic acid (2-hydroxy-propyl)-amide]
9 | 1.2 | – | Cc1onc(-c2ccccc2)c1/C=C/c1ncc(C(=O)NC2CCOCC2)s1 [Example 63, 2-[(E)-2-(5-Methyl-3-phenyl-isoxazol-4-yl)-vinyl]-thiazole-5-carboxylic acid (tetra-hydro-pyran-4-yl)-amide]
10 | 1.3 | – | Cc1onc(-c2ccccc2)c1/C=C/c1ncc(C(=O)NC(C)C)s1 [Example 65, 2-[(E)-2-(5-Methyl-3-phenyl-isoxazol-4-yl)-vinyl]-thiazole-5-carboxylic acid isoprop-ylamide]
11 | 1.8 | – | Cc1onc(-c2ccccc2)c1/C=C/c1ncc(C(=O)NC(C)CO)s1 (centres unmarked) [Example 66, 2-[(E)-2-(5-Methyl-3-phenyl-isoxazol-4-yl)-vinyl]-thiazole-5-carboxylic acid (2-hydroxy-1-methyl-ethyl)-amide]
12 | 2.8 | – | Cc1onc(-c2ccccc2)c1/C=C/c1ncc(C(=O)NCCO)s1 [Example 67, 2-[(E)-2-(5-Methyl-3-phenyl-isoxazol-4-yl)-vinyl]-thiazole-5-carboxylic acid (2-hydroxy-ethyl)-amide]
13 | 0.4 | – | Cc1nc(/C=C/c2c(-c3ccccc3)noc2C)sc1C(=O)NC(C)C [Example 68, 4-Methyl-2-[(E)-2-(5-methyl-3-phenyl-isoxazol-4-yl)-vinyl]-thiazole-5-carboxylic acid isopropylamide]
14 | 0.3 | – | Cc1nc(/C=C/c2c(-c3ccccc3)noc2C)sc1C(=O)NC1CCOC1 (centres unmarked) [Example 69, 4-Methyl-2-[(E)-2-(5-methyl-3-phenyl-isoxazol-4-yl)-vinyl]-thiazole-5-carboxylic acid (tetrahydro-furan-3-yl)-amide]
15 | 0.5 | – | Cc1nc(/C=C/c2c(-c3ccccc3)noc2C)sc1C(=O)NCCO [Example 70, 4-Methyl-2-[(E)-2-(5-methyl-3-phenyl-isoxazol-4-yl)-vinyl]-thiazole-5-carboxylic acid (2-hydroxy-ethyl)-amide]
16 | 1.5 | – | Cc1nc(/C=C/c2c(-c3ccc(F)cn3)noc2C)sc1C(=O)NC(C)C [Example 71, 2-{(E)-2-[3-(5-Fluoro-pyridin-2-yl)-5-methyl-isoxazol-4-yl]-vinyl}-4-methyl-thiazole-5-carboxylic acid isopropylamide]
17 | 0.6 | – | Cc1nc(/C=C/c2c(-c3ccc(F)cn3)noc2C)sc1C(=O)NC1CCOCC1 [Example 72, 2-{(E)-2-[3-(5-Fluoro-pyridin-2-yl)-5-methyl-isoxazol-4-yl]-vinyl}-4-methyl-thiazole-5-carboxylic acid (tetrahydro-pyran-4-yl)-amide]
18 | 1.6 | – | Cc1nc(/C=C/c2c(-c3ccc(F)cn3)noc2C)sc1C(=O)NC1CC1 [Example 73, 2-{(E)-2-[3-(5-Fluoro-pyridin-2-yl)-5-methyl-isoxazol-4-yl]-vinyl}-4-methyl-thiazole-5-carboxylic acid cyclopropylamide]
19 | 8.4 | – | Cc1nc(/C=C/c2c(-c3ccc(F)cn3)noc2C)sc1C(=O)NC(C)(C)CO [Example 74, 2-{(E)-2-[3-(5-Fluoro-pyridin-2-yl)-5-methyl-isoxazol-4-yl]-vinyl}-4-methyl-thiazole-5-carboxylic acid (2-hydroxy-1,1-dimethyl-ethyl)-amide]
20 | 1.8 | – | Cc1nc(/C=C/c2c(-c3ccc(F)cn3)noc2C)sc1C(=O)NCC1CC1 [Example 75, 2-{(E)-2-[3-(5-Fluoro-pyridin-2-yl)-5-methyl-isoxazol-4-yl]-vinyl}-4-methyl-thiazole-5-carboxylic acid cyclopropylmethyl-amide]
21 | 4.1 | – | Cc1nc(/C=C/c2c(-c3ccc(F)cn3)noc2C)sc1C(N)=O [Example 76, 2-{(E)-2-[3-(5-Fluoro-pyridin-2-yl)-5-methyl-isoxazol-4-yl]-vinyl}-4-methyl-thiazole-5-carboxylic acid amide]
22 | 3.5 | – | Cc1onc(-c2ccc(F)cn2)c1/C=C/c1ncc(C(=O)NC2CCOCC2)s1 [Example 77, 2-{(E)-2-[3-(5-Fluoro-pyridin-2-yl)-5-methyl-isoxazol-4-yl]-vinyl}-thiazole-5-carboxylic acid (tetrahydro-pyran-4-yl)-amide]
23 | 2.9 | – | Cc1onc(-c2ccc(F)cn2)c1/C=C/c1ncc(C(=O)NC(C)C)s1 [Example 78, 2-{(E)-2-[3-(5-Fluoro-pyridin-2-yl)-5-methyl-isoxazol-4-yl}-vinyl]-thiazole-5-carboxylic acid isopropylamide]
24 | – | 4.1 | Cc1onc(-c2ccc(F)cn2)c1/C=C/c1ncc(C(=O)NC2CC2)s1 [Example 79, 2-{(E)-2-[3-(5-Fluoro-pyridin-2-yl)-5-methyl-isoxazol-4-yl]-vinyl}-thiazole-5-carboxylic acid cyclopropylamide]
25 | 17.4 | – | Cc1onc(-c2ccc(F)cn2)c1/C=C/c1ncc(C(=O)NC(C)(C)CO)s1 [Example 80, 2-{(E)-2-[3-(5-Fluoro-pyridin-2-yl)-5-methyl-isoxazol-4-yl]-vinyl}-thiazole-5-carboxylic acid (2-hydroxy-1,1-dimethyl-ethyl)-amide]
26 | 5.5 | – | Cc1onc(-c2ccc(F)cn2)c1/C=C/c1ncc(C(N)=O)s1 [Example 81, 2-{(E)-2-[3-(5-Fluoro-pyridin-2-yl)-5-methyl-isoxazol-4-yl]-vinyl}-thiazole-5-carboxylic acid amide]
